Results taken from PMC5716981, “Inhibition of A2A Adenosine Receptor Signaling in Cancer Cells Proliferation by the Novel Antagonist TP455” (Frontiers in Pharmacology, 2017).
Structures can show the parent of a compound that is named as a salt.

Legend:
pERK1/2 = assay: AlphaScreen SureFire pERK1/2 assay in MRMT-1, A375 and A549 cells; assay type: cell-based, human and rat; settings: for inhibition of CGS21680-mediated ERK1/2 phosphorylation: 10 μM inhibitor, 100 nM CGS 21680, MRMT-1, A375 and A549 cells; for antagonism of CGS21680-induced ERK1/2 phosphorylation: 100 nM CGS21680 5 min
Description: (§1) AlphaScreen SureFire phospho(p)ERK1/2(Thr202/Tyr204), pJNK1/3(pThr183/Tyr185), and p-AKT1/2/3 (pThr308) assay kits (Perkin Elmer, Milan, Italy) were utilized. Upon kinase phosphorylation and excitation at 680 nm, fluorescent signals at 615 nm are emitted. Cells were seeded in 100 μl culture medium into 96-well plates (30,000/well), and incubated at 37°C for 24 h. Cells were pretreated with various inhibitors and TP455 for 30 min. Then, receptors were maximally stimulated using 100 nM CGS 21680 and incubated for 5 min (ERK1/2, JNK1/2-MAPK) or 30 min (AKT) at 37°C. After agonist removal, lysis buffer was added, then donor and acceptor beads linked to specific anti-p-kinase- and anti-kinase-antibodies were dispensed, according to manufacturer instructions. Finally, fluorescent signals were detected through an Ensight Perkin Elmer-multimode plate reader (Perkin Elmer, Milan, Italy). Data were normalized to fold activation above basal p-kinase levels (=100). For inhibitor graphs, raw data were transformed into percentages relative to controls (basal level = 100%) in order to merge data from several experiments.

A375 cells = assay: DELFIA cell proliferation (BrdU) in A375 cells; assay type: cell-based, human; settings: for inhibition of CGS21680-induced cell proliferation by signalling inhibitor: 10 μM inhibitor 30 min pretreatment; for inhibition of CGS21680-induced cell proliferation by signalling inhibitor / antagonism of CGS21680-induced cell proliferation: 100 nM CGS21680, 48 h; for effect on cell proliferation when tested alone: 48 h
Description: (§2) Tumoral cell lines A375 (human skin malignant melanoma), A549 (adenocarcinomic human alveolar basal epithelial cells) and rat cell line MRMT-1 (rat breast carcinoma cells) were purchased from ATCC and were grown adherently at 37°C in 5% CO2/95% air. A375 and A549 were maintained in DMEM high glucose medium containing 10% fetal calf serum, penicillin (100 U/mL) and streptomycin ([…]) and MRMT-1 were grown in RPMI 1640 medium containing 10% fetal calf serum, penicillin (100 U/mL), streptomycin ([…]), and L-glutamine (2 mM). Adenosine receptor agonists and antagonists and inhibitors of kinases, were made up in dimethyl sulfoxide solution (DMSO) and then diluted in cell culture medium (0.1 max 0.2% of DMSO). An equal amount of DMSO was used in control cells (CTR).
(§3) The DELFIA assay was performed to determine cell proliferation according to the manufacturer’s protocol from PerkinElmer (Milan, Italy). The assay is a time-resolved fluoroimmunoassay based on the incorporation of BrdU into newly synthesized DNA strands of proliferating cells cultured in microliter plates. Incorporated BrdU is detected using a europium labeled monoclonal antibody and the fluorescence measured is proportional to the DNA synthesis in the cell population of each well. A375, A549, and MRMT-1 cells were cultured over night at 1000 cells/well in a 96-well plate (at a final volume of 100 μl per well), agonists and antagonists were added and the cells were incubated for 30′ before addition of the BrdU-Labeling solution 10 μl/well. The cells were then cultured for 24, 48, or 72 h. At the end of the incubation period, cells were fixed (fix solution 100 μl/well), added with 100 μl/well of Anti-BrdU-Eu (0.5 μg/ml) and incubated for 120 min at room temperature. After four washes, 200 μl of DELFIA Inducer were added at room temperature for 15 min and the Eu-fluorescence was detected through an Ensight Perkin Elmer-multimode plate reader (Perkin Elmer, Milan, Italy). Two kinds of controls were performed: the blank where no cells were added to the well but only culture medium and the background where no BrdU was added to the wells.

pAKT = assay: AlphaScreen SureFire pAKT assay in MRMT-1, A375 and A549 cells; assay type: cell-based, human and rat; settings: for inhibition of CGS21680-mediated AKT phosphorylation: 10 μM inhibitor, 100 nM CGS 21680, MRMT-1, A375 and A549 cells; for antagonism of CGS21680-induced AKT phosphorylation: 100 nM CGS21680 10 min
Description: as §1, with “Then, receptors were maximally stimulated using 100 nM CGS 21680 and incubated for 5 min (ERK1/2, JNK1/2-MAPK) or 30 min (AKT) at 37°C.” left out

pJNK1/2 = assay: AlphaScreen SureFire pJNK1/2 assay in MRMT-1, A375 and A549 cells; assay type: cell-based, human and rat; settings: for inhibition of CGS21680-mediated JNK1/2 phosphorylation: 10 μM inhibitor, 100 nM CGS 21680, MRMT-1, A375 and A549 cells; for antagonism of CGS21680-induced JNK1/2 phosphorylation: 100 nM CGS21680 5 min
Description: as §1

A549 cells = assay: DELFIA cell proliferation (BrdU) in A549 cells; assay type: cell-based, human; settings: for inhibition of CGS21680-induced cell proliferation by signalling inhibitor: 10 μM inhibitor 30 min pretreatment; for inhibition of CGS21680-induced cell proliferation by signalling inhibitor / antagonism of CGS21680-induced cell proliferation: 100 nM CGS21680, 24 h; for effect on cell proliferation: 100 nM
Description: as §2, §3

MRMT-1 cells = assay: DELFIA cell proliferation (BrdU) in MRMT-1 cells; assay type: cell-based, rat; settings: for inhibition of CGS21680-induced cell proliferation by signalling inhibitor: 10 μM inhibitor 30 min pretreatment; for inhibition of CGS21680-induced cell proliferation by signalling inhibitor / antagonism of CGS21680-induced cell proliferation: 100 nM CGS21680, 48 h; for effect on cell proliferation when tested alone: 48 h
Description: as §2, §3

A2AARs [1] = biological target: T1, A2AARs (Homo sapiens, UniProt P29274); assay: [3H]ZM241385 competition binding in A375 melanoma membranes
Description: (§4) For membrane preparation the culture medium was removed. […] The cell suspension was homogenized with Polytron and the homogenate was spun for 10 min at 1000 g. The supernatant was then centrifuged for 30 min at 100,000g. The membrane pellet was resuspended in 50 mM Tris HCl buffer pH 7.4, 10 mM MgCl2. […] Then the suspension was frozen at -80°C.
(§5) At the end of the incubation, bound and free radioactivity were separated by filtering, in a Brandel cell harvester, the assay mixture through Whatman GF/B glass-fiber filters. The filter bound radioactivity was counted in a liquid Scintillation Counter Tri Carb Packard 2500 TR (Perkin-Elmer Life and Analytical Sciences, Boston, MA, United States).
(§6) LIGAND was also used to determine inhibitory binding constant (Ki) values from the competition binding experiments. All values in the figures and text are expressed as mean ± standard error (SE) of three independent experiments.

A2AARs [2] = biological target: A2AARs (Rattus norvegicus, UniProt P30543); assay: biochemical
Description: as §4, §5, §6

A2AARs [3] = biological target: T1, A2AARs; assay: [3H]ZM241385 competition binding in A549 lung carcinoma membranes
Description: as §4, §5, §6

[4] = 100 nM, 0-60 min, MRMT-1, A375 and A549 cells
[5] = 10 nM antagonist 30 min pretreatment, MRMT-1, A375 and A549 cells
[6] = 100 nM antagonist 30 min pretreatment, MRMT-1, A375 and A549 cells
[7] = 100 nM antagonist 30 min pretreatment

A2AARs (Rattus norvegicus, UniProt P30543), sequence (P30543 whole entry): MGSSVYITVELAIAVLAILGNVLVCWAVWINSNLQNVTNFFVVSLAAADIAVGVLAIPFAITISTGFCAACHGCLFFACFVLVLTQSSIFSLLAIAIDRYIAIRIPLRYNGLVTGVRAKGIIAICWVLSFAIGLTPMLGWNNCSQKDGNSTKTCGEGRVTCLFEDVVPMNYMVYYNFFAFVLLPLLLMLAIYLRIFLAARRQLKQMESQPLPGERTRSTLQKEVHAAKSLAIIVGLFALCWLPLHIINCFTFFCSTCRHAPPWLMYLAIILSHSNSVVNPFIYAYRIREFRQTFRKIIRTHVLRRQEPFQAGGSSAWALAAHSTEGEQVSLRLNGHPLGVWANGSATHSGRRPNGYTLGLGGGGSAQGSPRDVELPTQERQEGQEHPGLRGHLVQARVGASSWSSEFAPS
T1 sequence (P29274 whole entry): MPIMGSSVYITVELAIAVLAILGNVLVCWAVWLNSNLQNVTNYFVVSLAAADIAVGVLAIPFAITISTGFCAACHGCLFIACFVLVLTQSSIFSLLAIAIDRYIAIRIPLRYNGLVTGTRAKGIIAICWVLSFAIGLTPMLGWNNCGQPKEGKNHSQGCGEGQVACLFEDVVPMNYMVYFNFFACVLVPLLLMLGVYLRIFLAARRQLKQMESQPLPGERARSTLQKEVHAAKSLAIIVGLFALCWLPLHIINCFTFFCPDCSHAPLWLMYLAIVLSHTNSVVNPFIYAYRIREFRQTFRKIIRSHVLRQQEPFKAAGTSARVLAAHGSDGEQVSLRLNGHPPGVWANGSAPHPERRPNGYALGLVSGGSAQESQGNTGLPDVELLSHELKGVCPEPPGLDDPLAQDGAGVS

CC(=O)c1c(O)c(C)c(O)c(Cc2c(O)c3c(c(C(=O)C=Cc4ccccc4)c2O)OC(C)(C)C=C3)c1O [rottlerin, 1-[6-[(3-Acetyl-2,4,6-trihydroxy-5-methylphenyl)methyl]-5,7-dihydroxy-2,2-dimethyl-2H-1-benzopyran-8-yl]-3-phenyl-2-propen-1-one]
inhibition of CGS21680-mediated ERK1/2 phosphorylation (pERK1/2): strongly reduced | inhibition of CGS21680-induced cell proliferation by signalling inhibitor (A375 cells): able to antagonize the stimulatory effect | inhibition of CGS21680-mediated AKT phosphorylation (pAKT): strongly reduced | inhibition of CGS21680-mediated JNK1/2 phosphorylation (pJNK1/2): strongly reduced | inhibition of CGS21680-induced cell proliferation by signalling inhibitor (A549 cells): able to antagonize the stimulatory effect | inhibition of CGS21680-induced cell proliferation by signalling inhibitor (MRMT-1 cells): able to antagonize the stimulatory effect

CCNC(=O)[C@H]1O[C@@H](n2cnc3c(N)nc(NCCc4ccc(CCC(=O)O)cc4)nc32)[C@H](O)[C@@H]1O [CGS21680, 2-p-(2-Carboxyethyl)phenethylamino-5′-N-ethylcarboxamido-adenosine hydrochloride hydrate]
ERK1/2 phosphorylation time course (pERK1/2; [4]): reached a maximal effect after 5 min | effect on cell proliferation (A375 cells; 100 nM, only at 48 h): stimulatory effect of cell proliferation | AKT phosphorylation time course (pAKT; [4]): started to increase after 10 min | JNK1/2 phosphorylation time course (pJNK1/2; [4]): reached a maximal effect after 5 min | effect on cell proliferation (A549 cells; 48 and 72 h): not more present | effect on cell proliferation (A549 cells; 24 h): slightly increased cell proliferation | effect on cell proliferation (MRMT-1 cells; 10 nM, 48 and 72 h): raised cell vitality | effect on cell proliferation (MRMT-1 cells; 100 nM, 24, 48 and 72 h): significant stimulation

Nc1ncnc2c1ncn2C1CCCO1 (stereo not shown) [SQ22,536]
inhibition of CGS21680-induced cell proliferation by signalling inhibitor (A375 cells): did not block the agonist effect | inhibition of CGS21680-induced cell proliferation by signalling inhibitor (A549 cells): did not block the agonist effect | inhibition of CGS21680-induced cell proliferation by signalling inhibitor (MRMT-1 cells): did not block the agonist effect

COc1ccccc1CNc1nc(N)c2nc(-c3ccco3)sc2n1 [TP455, 2-(2-furanyl)-N^5-(2-methoxybenzyl)[1,3]thiazolo[5,4-d]pyrimidine-5,7-diammine]
Ki (A2AARs [1]): 5.8 pM | Ki (A2AARs [2]): 6.1 pM | antagonism of CGS21680-induced ERK1/2 phosphorylation (pERK1/2; [5]): potently inhibited | effect on cell proliferation when tested alone (A375 cells; 10 nM alone): did not alter cell proliferation | antagonism of CGS21680-induced cell proliferation (A375 cells; 10 nM antagonist): antagonized | antagonism of CGS21680-induced AKT phosphorylation (pAKT; [5]): potently inhibited | antagonism of CGS21680-induced JNK1/2 phosphorylation (pJNK1/2; [5]): potently inhibited | effect on cell proliferation when tested alone (A549 cells; 10 nM alone, 24 h): did not alter cell proliferation | antagonism of CGS21680-induced cell proliferation (A549 cells; 10 nM antagonist): antagonized | effect on cell proliferation when tested alone (MRMT-1 cells; 10 nM alone): did not alter cell proliferation | antagonism of CGS21680-induced cell proliferation (MRMT-1 cells; 10 nM antagonist): antagonized | Ki (A2AARs [3]): 5.3 pM

CCCCCCCCCCCCCCCCCCOC[C@H](COP(=O)(O)O[C@H]1[C@H](O)[C@@H](O)[C@H](O)C[C@H]1OC)OC [SH5, D-3-Deoxy-2-O-methyl-myo-inositol 1-[(R)-2-methoxy-3-(octadecyloxy)propyl hydrogen phosphate]]
inhibition of CGS21680-induced cell proliferation by signalling inhibitor (A375 cells): strongly reduced | inhibition of CGS21680-induced cell proliferation by signalling inhibitor (A549 cells): strongly reduced | inhibition of CGS21680-induced cell proliferation by signalling inhibitor (MRMT-1 cells): strongly reduced

COc1ccc2c(c1)CC[C@@H]1[C@@H]2CC[C@]2(C)[C@@H](NCCCCCCN3C(=O)C=CC3=O)CC[C@@H]12 [U73122, 1-[6-[[(17β)-3-Methoxyestra-1,3,5(10)-trien-17-yl]amino]hexyl]-1H-pyrrole-2,5-dione]
inhibition of CGS21680-mediated ERK1/2 phosphorylation (pERK1/2): strongly reduced | inhibition of CGS21680-induced cell proliferation by signalling inhibitor (A375 cells): able to antagonize the stimulatory effect | inhibition of CGS21680-mediated AKT phosphorylation (pAKT): strongly reduced | inhibition of CGS21680-mediated JNK1/2 phosphorylation (pJNK1/2): strongly reduced | inhibition of CGS21680-induced cell proliferation by signalling inhibitor (A549 cells): able to antagonize the stimulatory effect | inhibition of CGS21680-induced cell proliferation by signalling inhibitor (MRMT-1 cells): able to antagonize the stimulatory effect

Nc1nc2c(cnn2CCc2ccccc2)c2nc(-c3ccco3)nn12 [SCH58261]
Ki (A2AARs [2]): 3260 pM

N#CC(=C(/N)Sc1ccccc1N)/C(C#N)=C(/N)Sc1ccccc1N [U0126]
inhibition of CGS21680-induced cell proliferation by signalling inhibitor (A375 cells): strongly reduced | inhibition of CGS21680-induced cell proliferation by signalling inhibitor (A549 cells): strongly reduced | inhibition of CGS21680-induced cell proliferation by signalling inhibitor (MRMT-1 cells): strongly reduced

Oc1c2ccccc2c2c3c(cccc13)N=N2 [SP600125, 1,9-Pyrazoloanthrone]
inhibition of CGS21680-induced cell proliferation by signalling inhibitor (A375 cells): strongly reduced | inhibition of CGS21680-induced cell proliferation by signalling inhibitor (A549 cells): strongly reduced | inhibition of CGS21680-induced cell proliferation by signalling inhibitor (MRMT-1 cells): strongly reduced

Nc1nc(NCCc2ccc(O)cc2)nc2nc(-c3ccco3)nn12 [ZM241385, 4-(2-[7-Amino-2-(2-furyl) [1,2,4]triazolo[2,3-a][1,3,5]triazin-5-ylamino]ethyl)phenol]
antagonism of CGS21680-induced ERK1/2 phosphorylation (pERK1/2; [6]): completely reverted | effect on cell proliferation when tested alone (A375 cells; 100 nM alone): did not alter cell proliferation | antagonism of CGS21680-induced cell proliferation (A375 cells; [7]): completely block the agonist effect | antagonism of CGS21680-induced AKT phosphorylation (pAKT; [6]): completely reverted | antagonism of CGS21680-induced JNK1/2 phosphorylation (pJNK1/2; [6]): completely reverted | effect on cell proliferation when tested alone (A549 cells; 100 nM alone, 24 h): did not alter cell proliferation | antagonism of CGS21680-induced cell proliferation (A549 cells; [7]): completely block the agonist effect | effect on cell proliferation when tested alone (MRMT-1 cells; 100 nM alone): did not alter cell proliferation | antagonism of CGS21680-induced cell proliferation (MRMT-1 cells; [7]): completely block the agonist effect

Nc1nc2ccc(Cl)cc2c2nc(-c3ccco3)nn12 [CGS15943]
Ki (A2AARs [2]): 2150 pM

Oc1ccc(-c2nc(-c3ccc(F)cc3)c(-c3ccncc3)[nH]2)cc1 [SB202190, 4-(4-Fluorophenyl)-2-(4-hydroxyphenyl)-5-(4-pyridyl)-1H-imidazole]
inhibition of CGS21680-induced cell proliferation by signalling inhibitor (A375 cells): did not | inhibition of CGS21680-induced cell proliferation by signalling inhibitor (A549 cells): did not | inhibition of CGS21680-induced cell proliferation by signalling inhibitor (MRMT-1 cells): did not
